Data published in PubChem BioAssay (NCI).
“And” between values parts separate entries of the source, which are not always exact repeats. Equal entries are not always repeated.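 Step 1: Grow cells in 96-well plates. Step 2: Expose to compound for 48 hours at 5 concentrations. Step 3: Interpolate endpoints linearly; if unreached, use highest concentration. The concentration for 50% growth inhibition is given as GI50. TGI is the concentration that stops growth completely.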

Experiments:
Experiment in all cases: DTP human tumour cell line panel, 48 h
ACHN renal = system: ACHN renal
EKVX NSCLC = system: EKVX NSCLC
MDA-MB-231 breast = system: MDA-MB-231 breast
NCI-H23 lung = system: NCI-H23 lung
OVCAR-3 ovarian = system: OVCAR-3 ovarian
OVCAR-5 ovarian = system: OVCAR-5 ovarian
SK-MEL-28 melanoma = system: SK-MEL-28 melanoma
SNB-19 CNS = system: SNB-19 CNS
UACC-62 melanoma = system: UACC-62 melanoma
OVCAR-8 ovarian = system: OVCAR-8 ovarian

SMILES | GI50 (ACHN renal) [µM] | TGI (ACHN renal) [µM] | GI50 (EKVX NSCLC) [µM] | TGI (EKVX NSCLC) [µM] | GI50 (MDA-MB-231 breast) [µM] | TGI (MDA-MB-231 breast) [µM] | GI50 (NCI-H23 lung) [µM] | TGI (NCI-H23 lung) [µM] | GI50 (OVCAR-3 ovarian) | TGI (OVCAR-3 ovarian) | GI50 (OVCAR-5 ovarian) [µM] | TGI (OVCAR-5 ovarian) [µM] | GI50 (SK-MEL-28 melanoma) | TGI (SK-MEL-28 melanoma) | GI50 (SNB-19 CNS) [µM] | TGI (SNB-19 CNS) [µM] | GI50 (UACC-62 melanoma) | TGI (UACC-62 melanoma) | GI50 (OVCAR-8 ovarian) [µM] | TGI (OVCAR-8 ovarian) [µM]
CCCCCCCCCCCCCCCCn1cc[n+](Cc2ccccc2)c1C | 1.89 | 7 | 0.703 | 2.28 | 0.0684 | 0.989 | 0.361 | 1.8 | 0.178 µM and 0.175 µM | 0.947 µM and 0.49 µM | 1.48 | 3.25 | 1.7 µM and 0.246 µM | 4.22 µM and 1.35 µM | 0.565 | 2.01 | 0.577 µM and 0.232 µM | 2.01 µM and 1.21 µM |  | 
COc1cc2c3c(n(CCCNCCNCCCN)c(=O)c2cc1OC)-c1cc2c(cc1C3=O)OCO2 | 0.18 | 2.6 | 29.8 | 69.9 | 1.19 | 3.59 | 2.73 | 10.9 | 2.22 µM | 7.63 µM | 3.82 | 21.4 | 6.6 µM | 20.1 µM | 5.73 | 31.2 | 1.87 µM | 8.18 µM | 2.39 | 6.45
COc1ccc2c(c1)C(=O)c1c-2n(CCCN2CCOCC2)c(=O)c2cc([N+](=O)[O-])ccc12 | < 0.01 | < 0.0108 | 0.068 | 12 | 0.661 | 17.3 | < 0.01 | < 0.01 | < 0.0113 µM | 1.49 µM | < 0.01 | 0.889 |  | 16.2 µM | < 0.01 | > 36.5 | < 0.01 µM | 0.0291 µM | < 0.01 | > 50.6
COc1ccc(-c2cc(-c3nnc(SCC(=O)Nc4ccc(C(C)=O)cc4)o3)c3ccccc3n2)cc1 | 5.64 | 31.7 | > 100 | > 100 | 19.4 | > 100 | 25.4 | > 100 | 62.6 µM | > 100 µM | > 100 | > 100 | > 100 µM | > 100 µM | 12.6 | > 100 | 27.1 µM | > 100 µM | 48.9 | > 100
O=C1C=CC(=O)c2c1ncc1c2nc2sccn21 | 21.7 | 39.6 | 20.2 | 44.7 | 14.6 | 39 | 22.2 | 83.7 | 20.3 µM | 63.4 µM | 19.8 | 40.1 | 22.9 µM | 47.2 µM | 63.8 | > 100 | 21.8 µM | 45.2 µM | 30.5 | > 100
O=[N+]([O-])c1ccc(N=Nc2c(O)[nH]c3ccccc23)cc1 |  | 26.3 |  | > 72.1 |  | > 58.9 |  | > 100 |  | 35.2 µM |  | > 63.1 |  | > 100 µM |  | > 100 |  | > 100 µM |  | 48.3
Oc1cc(Cl)ccc1Cc1ccc(Cl)cc1O | 10 | 31.2 | 5.56 | 36 | 11.6 | 36.3 | 3.21 | 12.6 | 3.71 µM | 13.9 µM | 15.1 | 31.8 | 8.26 µM | 20.7 µM | 14.3 | 45.1 | 4.9 µM | 16.3 µM | 15.1 | 48.8
